Assay results taken from patent US20240310368A1, “DETECTION KIT FOR CATECHOLAMINES AND METABOLITES THEREOF IN PLASMA/URINE AND DETECTION METHOD THEREOF” (Calibra Scientific, Inc., priority 2023, published 2024).
Where “and” joins values, the source holds several entries; their conditions need not be identical. Equal values may be shown once.

Experiments:
[1] = Stabilizing effect of accelerated stabilizers (37° C., 14 days) on plasma samples then accelerated at 30° C. for 1.5 days; type: physicochemical, human; conditions: for Relative deviation %: Accelerate vs Control; for concentration in plasma samples, Control / concentration in plasma samples, Accelerate: single replicates; for concentration in plasma samples, Accelerate: stabilizer accelerated 37° C. 14 days, plasma then accelerated at 30° C. for 1.5 days
Procedure: (§1) In the present example, the stabilizing effect of the stabilizers on plasma samples, standard products and quality control products after acceleration was further verified. The stabilizers were accelerated at 37° C. for 14 days (equivalent to 1 year at 2-8° C.), added into the plasma samples in proportions and then accelerated at 30° C. for 1.5 days (equivalent to 12 months at −30° C. to −15° C.). The stabilizers were accelerated at 37° C. for 14 days (equivalent to 1 year at 2-8° C.), added into the standard products and the quality control products in proportions and then accelerated at 30° C. for 2 days (equivalent to 18 months at −30° C. to −15° C.).

[2] = Stabilizing effect of accelerated stabilizers (37° C., 14 days) on standard products and quality control products then accelerated at 30° C. for 2 days; type: physicochemical; conditions: for Relative deviation %: 2 days at 30° C. vs Control; for concentration in standard products and quality control products, 2 days at 30° C. / concentration in standard products and quality control products, Control: single replicates
Procedure: Standard products of epinephrine, norepinephrine, dopamine, metanephrine, normetanephrine and 3-methoxytyramine were prepared into mixed solutions, and blank plasma containing a stabilizer was used as a matrix to prepare standard products and quality control products.
as §1

[3] = Stability of ascorbic acid and glutathione in stabilizers accelerated at 37° C. for 14 days against an unaccelerated stabilizer; type: physicochemical; conditions: for stability of ascorbic acid and glutathione in stabilizers after acceleration: 37° C. for 14 days (equivalent to 1 year at 2-8° C.); for Relative deviation %: after acceleration at 37° C. for 14 days vs new formulations
Procedure: Stabilizers (Example 1) were accelerated at 37° C. for 14 days (equivalent to 1 year at 2-8° C.) and then compared with an unaccelerated stabilizer.

[4] = Acceleration test of plasma samples with stabilizers (30° C. for 1.5 days, against control plasma stored at −95° C. to −65° C.), LC-MS/MS Area/IS Area
Procedure: Samples were collected in EDTA-anticoagulant blood collection tubes and then rapidly subjected to […] centrifugation at 2-8° C. to separate plasma. 0.95 mL of the plasma was transferred into centrifuge tubes. After 50 μL of the stabilizer was added for uniform mixing, the plasma samples were stored by refrigeration or freezing.
• (1) 500 μL of plasma/urine samples to be tested were taken, and 50 μL of the internal standard solution and 500 μL of the buffer solution were sequentially added for vertex mixing to obtain diluted samples. • (2) The magnetic medium composite material suspension was subjected to full vortex treatment to reach a suspension state, and then subsequent operation was performed. • (3) Different reagents were added into wells of a preprocessing plate according to the follow operation: adding 200 μL of the magnetic medium composite material suspension in column 1, adding 500 μL of the balance solution in column 2, adding 850 μL of the diluted samples in column 3, adding 500 μL of the balance solution in column 4, adding 200 μL of a rinsing solution in column 5, and adding 100 μL of the elution solution in column 6. • (4) An extraction operation procedure was carried out, as shown in Table 5.
Each group of the plasma samples were stored at 30° C. for 1.5 days, and plasma without addition of any compounds stored at −95° C. to −65° C. was used as a control. […] The stabilizing effect of the single-component stabilizers on the plasma samples was investigated.
The stabilizers were mixed with plasma (the volume ratio of the stabilizers to plasma samples was 1:19), and high concentration plasma samples and low concentration plasma samples were prepared by the method provided in Example 1.
With plasma stored at −95° C. to −65° C. as a control, the above plasma samples were separately stored at 30° C. for 1.5 days to investigate the stability. […]

[5] = samples at a high concentration level
[6] = samples at a low concentration level
[7] = After acceleration (stabilizer of Example 1, 37° C. for 14 days)
[8] = New formulations (unaccelerated stabilizer of Example 1)
[9] = plasma at a high concentration level, plasma containing 50 μg/mL of the component, control plasma 0.624
[10] = plasma at a high concentration level, plasma containing 50 μg/mL of the component, control plasma 1.522
[11] = plasma at a high concentration level, plasma containing 50 μg/mL of the component, control plasma 2.27
[12] = plasma at a high concentration level, plasma containing 200 μg/mL of the component, control plasma 0.624
[13] = plasma at a high concentration level, plasma containing 200 μg/mL of the component, control plasma 1.522
[14] = plasma at a high concentration level, plasma containing 200 μg/mL of the component, control plasma 2.27
[15] = plasma at a low concentration level, plasma containing 50 μg/mL of the component, control plasma 0.079
[16] = plasma at a low concentration level, plasma containing 50 μg/mL of the component, control plasma 0.219
[17] = plasma at a low concentration level, plasma containing 50 μg/mL of the component, control plasma 0.233
[18] = plasma at a low concentration level, plasma containing 200 μg/mL of the component, control plasma 0.079
[19] = plasma at a low concentration level, plasma containing 200 μg/mL of the component, control plasma 0.219
[20] = plasma at a low concentration level, plasma containing 200 μg/mL of the component, control plasma 0.233

| SMILES | Relative deviation % [1, 5] | concentration in plasma samples, Control [1, 5] | concentration in plasma samples, Accelerate [1, 5] | Relative deviation % [1, 6] | concentration in plasma samples, Control [1, 6] | concentration in plasma samples, Accelerate [1, 6] | Relative deviation % ([2]; High concentration level) | average concentration, 2 days at 30° C. ([2]; High concentration level) | concentration in standard products and quality control products, 2 days at 30° C. ([2]; High concentration level) | average concentration, Control ([2]; High concentration level) | concentration in standard products and quality control products, Control ([2]; High concentration level) | Relative deviation % ([2]; Low concentration level) | average concentration, 2 days at 30° C. ([2]; Low concentration level) | concentration in standard products and quality control products, 2 days at 30° C. ([2]; Low concentration level) | average concentration, Control ([2]; Low concentration level) | concentration in standard products and quality control products, Control ([2]; Low concentration level) | Relative deviation % ([2]; Medium concentration level) | average concentration, 2 days at 30° C. ([2]; Medium concentration level) | concentration in standard products and quality control products, 2 days at 30° C. ([2]; Medium concentration level) | average concentration, Control ([2]; Medium concentration level) | other results |
| --- | --- | --- | --- | --- | --- | --- | --- | --- | --- | --- | --- | --- | --- | --- | --- | --- | --- | --- | --- | --- | --- |
| COc1cc(CCN)ccc1O [Group 3-MT] | −2.0% | 0.38458 ng/mL and 0.38086 ng/mL and 0.37856 ng/mL | 0.35799 ng/mL and 0.37926 ng/mL and 0.38345 ng/mL | 0.6% | 0.06389 ng/mL and 0.06483 ng/mL and 0.06347 ng/mL | 0.06307 ng/mL and 0.062 ng/mL and 0.06825 ng/mL | −3.54% | 1001.8 pg/mL | 1.00258 ng/mL and 0.99459 ng/mL and 1.00823 ng/mL | 1038.58 pg/mL | 1.01486 ng/mL and 1.01865 ng/mL and 1.08223 ng/mL | −8.93% | 10.93 pg/mL | 0.01106 ng/mL and 0.01049 ng/mL and 0.01124 ng/mL | 12 pg/mL | 0.01245 ng/mL and 0.01066 ng/mL and 0.0129 ng/mL | −4.98% | 182.01 pg/mL | 0.16702 ng/mL and 0.19198 ng/mL and 0.18703 ng/mL | 191.55 pg/mL | concentration in standard products and quality control products, Control ([2]; Medium concentration level): 0.19324 ng/mL and 0.19663 ng/mL and 0.18479 ng/mL |
| CNCC(O)c1ccc(O)c(OC)c1 (centres unmarked) [MN] | −1.2% | 0.41672 ng/mL and 0.40668 ng/mL and 0.40997 ng/mL | 0.39738 ng/mL and 0.41965 ng/mL and 0.40205 ng/mL | 1.9% | 0.07592 ng/mL and 0.07977 ng/mL and 0.07321 ng/mL | 0.0778 ng/mL and 0.07674 ng/mL and 0.07872 ng/mL | 0.61% | 984.35 pg/mL | 1.00342 ng/mL and 0.93428 ng/mL and 1.01536 ng/mL | 978.42 pg/mL | 1.00662 ng/mL and 0.97242 ng/mL and 0.9562 ng/mL | 2.69% | 12.16 pg/mL | 0.01233 ng/mL and 0.01302 ng/mL and 0.01113 ng/mL | 11.84 pg/mL | 0.01265 ng/mL and 0.01291 ng/mL and 0.00997 ng/mL | −1.18% | 198.93 pg/mL | 0.20299 ng/mL and 0.20812 ng/mL and 0.18568 ng/mL | 201.31 pg/mL | concentration in standard products and quality control products, Control ([2]; Medium concentration level): 0.21281 ng/mL and 0.1969 ng/mL and 0.19422 ng/mL |
| O=C1O[C@H]([C@@H](O)CO)C(O)=C1O [ascorbic acid] | – | – | – | – | – | – | – | – | – | – | – | – | – | – | – | – | – | – | – | – | stability of ascorbic acid and glutathione in stabilizers after acceleration [3]: maintained stable; Area [3, 7]: 6.96E+05 and 6.32E+05 and 6.08E+05; Area [3, 8]: 6.88E+05 and 7.26E+05 and 6.96E+05; Relative deviation % [3]: −8.2%; Ratio (Area/IS Area) E [4, 9]: 0; Ratio (Area/IS Area) NE [4, 10]: 0; Ratio (Area/IS Area) DA [4, 11]: 0; Ratio (Area/IS Area) E [4, 12]: 0.048; Ratio (Area/IS Area) NE [4, 13]: 0; Ratio (Area/IS Area) DA [4, 14]: 0; Ratio (Area/IS Area) E [4, 15]: 0; Ratio (Area/IS Area) NE [4, 16]: 0; Ratio (Area/IS Area) DA [4, 17]: 0; Ratio (Area/IS Area) E [4, 18]: 0; Ratio (Area/IS Area) NE [4, 19]: 0; Ratio (Area/IS Area) DA [4, 20]: 0 |
| NC[C@H](O)c1ccc(O)c(O)c1 [NE] | −7.1% | 1.73055 ng/mL and 1.84024 ng/mL and 1.88485 ng/mL | 1.79476 ng/mL and 1.56875 ng/mL and 1.70297 ng/mL | −2.5% | 0.27092 ng/mL and 0.2617 ng/mL and 0.26601 ng/mL | 0.26432 ng/mL and 0.25764 ng/mL and 0.25636 ng/mL | 0.32% | 4998.13 pg/mL | 4.88469 ng/mL and 4.96531 ng/mL and 5.14439 ng/mL | 4982.23 pg/mL | 4.87738 ng/mL and 5.14511 ng/mL and 4.9242 ng/mL | −8.19% | 55.15 pg/mL | 0.05733 ng/mL and 0.05299 ng/mL and 0.05514 ng/mL | 60.07 pg/mL | 0.06429 ng/mL and 0.06019 ng/mL and 0.05575 ng/mL | 1.77% | 994.89 pg/mL | 0.98928 ng/mL and 1.01881 ng/mL and 0.97658 ng/mL | 977.62 pg/mL | concentration in standard products and quality control products, Control ([2]; Medium concentration level): 0.97173 ng/mL and 0.97142 ng/mL and 0.98969 ng/mL |
| N[C@@H](CCC(=O)N[C@@H](CS)C(=O)NCC(=O)O)C(=O)O [glutathione] | – | – | – | – | – | – | – | – | – | – | – | – | – | – | – | – | – | – | – | – | stability of ascorbic acid and glutathione in stabilizers after acceleration [3]: maintained stable; Area [3, 7]: 7.45E+04 and 7.62E+04 and 8.98E+04; Area [3, 8]: 8.44E+04; Relative deviation % [3]: −5.0%; Ratio (Area/IS Area) E [4, 9]: 0; Ratio (Area/IS Area) NE [4, 10]: 0; Ratio (Area/IS Area) DA [4, 11]: 0; Ratio (Area/IS Area) E [4, 12]: 0; Ratio (Area/IS Area) NE [4, 13]: 0; Ratio (Area/IS Area) DA [4, 14]: 0; Ratio (Area/IS Area) E [4, 15]: 0; Ratio (Area/IS Area) NE [4, 16]: 0; Ratio (Area/IS Area) DA [4, 17]: 0; Ratio (Area/IS Area) E [4, 18]: 0; Ratio (Area/IS Area) NE [4, 19]: 0; Ratio (Area/IS Area) DA [4, 20]: 0 |
